Results from patent US8551984B2, “Aminopyrimidines as SYK inhibitors” (Merck Sharp & Dohme Corp., priority 2009, dated 2013).
pIC50: −log10 of the molar value. Counter-ions that a name gives are not always drawn.

Target: recombinant human SYK (GST-hSYK fusion protein) (Homo sapiens, UniProt P43405)
Assay: biochemical
Details: rhSYK Activity (IC50), recombinant human GST-SYK 5 pM, ATP 25 μM, biotinylated substrate peptide 250 nM, HTRF, 10-dose titration
Text: Homogeneous Time-Resolved Fluorescence (HTRF) Assay for the Recombinant Human SYK Enzyme:

## Cc1cc(Nc2nccc(C(F)(F)F)n2)cc(-c2cnc(CC(C)(C)C(=O)O)s2)c1 [Example 78, 2,2-dimethyl-3-[5-(3-methyl-5-{[4-(trifluoromethyl)pyrimidin-2-yl]amino}phenyl)-1,3-thiazol-2-yl]propanoic acid (potassium salt and TFA salt)]
  pIC50: > 7.00

## CCOC(=O)CCc1ncc(-c2cc(C)cc(Nc3nccc(C(F)(F)F)n3)c2)s1 [Example 79-1, Ethyl 3-[5-(3-methyl-5-{[4-(trifluoromethyl)pyrimidin-2-yl]amino}phenyl)-1,3-thiazol-2-yl]-propanoate]
  pIC50: > 7.00

## Cc1cc(Nc2nccc(C(F)(F)F)n2)cc(-c2cnc(CCC(N)=O)s2)c1 [Example 79-2]
  pIC50: > 7.00

## Cc1cc(Nc2nccc(C(F)(F)F)n2)cc(-c2cnc(CCC(=O)N(C)C)s2)c1 [Example 79-4]
  pIC50: > 7.00

## Cc1cc(Nc2nccc(C(F)(F)F)n2)cc(-c2cnc(CCC(=O)N3CCOCC3)s2)c1 [Example 79-5]
  pIC50: > 7.00

## Cc1cc(Nc2nccc(C(F)(F)F)n2)cc(-c2cnc(CCC(=O)NCCO)s2)c1 [Example 79-6]
  pIC50: > 7.00

## Cc1cc(Nc2nccc(C(F)(F)F)n2)cc(-c2cnc(CCc3nnco3)s2)c1 [Example 79-7]
  pIC50: > 7.00

## Cc1cc(Nc2nccc(C(F)(F)F)n2)cc(-c2cnc(CCc3nnc(C)o3)s2)c1 [Example 79-8]
  pIC50: > 7.00

## Cc1cc(Nc2nccc(C(F)(F)F)n2)cc(-c2cnc(CCc3nnc(C4CC4)o3)s2)c1 [Example 79-9]
  pIC50: > 7.00

## Cc1cc(Nc2nccc(C(F)(F)F)n2)cc(-c2cnc(CC(C)(C)C(N)=O)s2)c1 [Example 79-10]
  pIC50: > 7.00

## Cc1cc(Nc2nccc(C(F)(F)F)n2)cc(-c2cnc(CC(C)(C)C(=O)N(C)C)s2)c1 [Example 79-11]
  pIC50: > 7.00

## Cc1cc(Nc2nccc(C(F)(F)F)n2)cc(-c2cnc(CCC(C)(C)O)s2)c1 [Example 80, 2-methyl-4-[5-(3-methyl-5-{[4-(trifluoromethyl)pyrimidin-2-yl]amino}phenyl)-1,3-thiazol-2-yl]butan-2-ol]
  pIC50: > 7.00

## Cc1cc(Nc2nccc(C(F)(F)F)n2)cc(-c2cnc(C(C)(C)C(=O)OC(C)(C)C)s2)c1 [Example 81, tert-Butyl 2-methyl-2-[5-(3-methyl-5-{[4-(trifluoromethyl)pyrimidin-2-yl]amino}phenyl)-1,3-thiazol-2-yl]propanoate]
  pIC50: 6.00 to 7.00

## Cc1cc(Nc2nccc(C(F)(F)F)n2)cc(-c2cnc(C(C)(C)c3nnco3)s2)c1 [Example 82, N-(3-methyl-5-{2-[2-(1,3,4-oxadiazol-2-yl)propan-2-yl]-1,3-thiazol-5-yl}phenyl)-4-(trifluoromethyl)pyrimidin-2-amine]
  pIC50: > 7.00

## Cc1cc(Nc2nccc(C(F)(F)F)n2)cc(-c2cnc(C3(C(=O)OC(C)(C)C)CC3)s2)c1 [Example 83, tert-butyl 1-[5-(3-methyl-5-{[4-(trifluoromethyl)pyrimidin-2-yl]amino}phenyl)-1,3-thiazol-2-yl]cyclopropanecarboxylate]
  pIC50: 6.00 to 7.00

## Cc1cc(Nc2nccc(C(F)(F)F)n2)cc(-c2cnc(C3(C(=O)O)CC3)s2)c1 [Example 84, 1-[5-(3-methyl-5-{[4-(trifluoromethyl)pyrimidin-2-yl]amino}phenyl)-1,3-thiazol-2-yl]cyclopropanecarboxylic acid (TFA salt)]
  pIC50: > 7.00

## Cc1cc(Nc2nccc(C(F)(F)F)n2)cc(-c2cnc(C3(c4nnco4)CC3)s2)c1 [Example 85, N-(3-methyl-5-{2-[1-(1,3,4-oxadiazol-2-yl)cyclopropyl]-1,3-thiazol-5-yl}phenyl)-4-(trifluoromethyl)pyrimidin-2-amine]
  pIC50: > 7.00

## Cc1cc(Nc2nccc(C(F)(F)F)n2)cc(-c2cnc(C(C)(C)C(N)=O)s2)c1 [Example 85A-1]
  pIC50: > 7.00

## Cc1cc(Nc2nccc(C(F)(F)F)n2)cc(-c2cnc(C(C)(C)C(=O)N(C)C)s2)c1 [Example 85A-2]
  pIC50: > 7.00

## Cc1cc(Nc2nccc(C(F)(F)F)n2)cc(-c2cnc(C(C)(C)C(=O)N3CCOCC3)s2)c1 [Example 85A-3]
  pIC50: > 7.00

## Cc1cc(Nc2nccc(C(F)(F)F)n2)cc(-c2cnc(C(C)(C)c3nnc(C)o3)s2)c1 [Example 85A-4]
  pIC50: > 7.00

## Cc1cc(Nc2nccc(C(F)(F)F)n2)cc(-c2cnc(C3(C(=O)N(C)C)CC3)s2)c1 [Example 85B-1]
  pIC50: > 7.00

## CNC(=O)C1(c2ncc(-c3cc(C)cc(Nc4nccc(C(F)(F)F)n4)c3)s2)CC1 [Example 85B-2]
  pIC50: > 7.00

## Cc1cc(Nc2nccc(C(F)(F)F)n2)cc(-c2cnc(C3(C(N)=O)CC3)s2)c1 [Example 85B-3]
  pIC50: > 7.00

## Cc1cc(Nc2nccc(C(F)(F)F)n2)cc(-c2cnc(C3(c4nnc(C)o4)CC3)s2)c1 [Example 85B-4]
  pIC50: > 7.00

## Cc1cc(Nc2nccc(C(F)(F)F)n2)cc(-c2cnc(C(=O)O)s2)c1 [Example 86, 5-(3-methyl-5-{[4-(trifluoromethyl)pyrimidin-2-yl]amino}phenyl)-1,3-thiazole-2-carboxylic acid]
  pIC50: > 7.00

## Cc1cc(Nc2nccc(C(F)(F)F)n2)cc(-c2cnc(C(=O)NC[C@@H](O)CO)s2)c1 [Example 87, N-[(2R)-2,3-dihydroxypropyl]-5-(3-methyl-5-{[4-(trifluoromethyl)pyrimidin-2-yl]amino}-phenyl)-1,3-thiazole-2-carboxamide]
  pIC50: > 7.00

## Cc1cc(Nc2nccc(C(F)(F)F)n2)cc(-c2cnc(C(=O)NC(C)C)s2)c1 [Example 87A-1]
  pIC50: 6.00 to 7.00

## Cc1cc(Nc2nccc(C(F)(F)F)n2)cc(-c2cnc(C(N)=O)s2)c1 [Example 87A-2]
  pIC50: 6.00 to 7.00

## Cc1cc(Nc2nccc(C(F)(F)F)n2)cc(-c2cnc(C(=O)NCCS(C)(=O)=O)s2)c1 [Example 87A-5]
  pIC50: > 7.00

## Cc1cc(Nc2nccc(C(F)(F)F)n2)cc(-c2cnc(C(=O)N(C)CCO)s2)c1 [Example 87A-6]
  pIC50: > 7.00

## Cc1cc(Nc2nccc(C(F)(F)F)n2)cc(-c2cnc(C(=O)NCC(C)O)s2)c1 (stereo not drawn) [Example 87A-7]
  pIC50: > 7.00

## Cc1cc(Nc2nccc(C(F)(F)F)n2)cc(-c2cnc(C(=O)NC(C)CO)s2)c1 (stereo not drawn) [Example 87A-8]
  pIC50: > 7.00

## Cc1cc(Nc2nccc(C(F)(F)F)n2)cc(-c2cnc(C(=O)NC3(CO)CC3)s2)c1 [Example 87A-9]
  pIC50: > 7.00

## CCC(CO)NC(=O)c1ncc(-c2cc(C)cc(Nc3nccc(C(F)(F)F)n3)c2)s1 (stereo not drawn) [Example 87A-10]
  pIC50: > 7.00

## Cc1cc(Nc2nccc(C(F)(F)F)n2)cc(-c2cnc(C(=O)NCC(C)(C)O)s2)c1 [Example 87A-11]
  pIC50: > 7.00

## Cc1cc(Nc2nccc(C(F)(F)F)n2)cc(-c2cnc(C(=O)NC(C)(CO)CO)s2)c1 [Example 87A-12]
  pIC50: > 7.00

## Cc1cc(Nc2nccc(C(F)(F)F)n2)cc(-c2cnc(C(=O)NCc3cnn(C)c3)s2)c1 [Example 87A-13]
  pIC50: 6.00 to 7.00

## Cc1cc(Nc2nccc(C(F)(F)F)n2)cc(-c2cnc(C(=O)NCc3cncn3C)s2)c1 [Example 87A-14]
  pIC50: > 7.00

## Cc1cc(Nc2nccc(C(F)(F)F)n2)cc(-c2cnc(C(=O)NCCc3c[nH]cn3)s2)c1 [Example 87A-15]
  pIC50: > 7.00

## Cc1cc(Nc2nccc(C(F)(F)F)n2)cc(-c2cnc(C(=O)NC3(CO)CCCC3)s2)c1 [Example 87A-16]
  pIC50: 5.00 to 6.00

## Cc1cc(Nc2nccc(C(F)(F)F)n2)cc(-c2cnc(C(=O)N(C)CCC3OCCO3)s2)c1 [Example 87A-17]
  pIC50: 6.00 to 7.00
